Results from patent US8580762B2, “Substituted purine and 7-deazapurine compounds” (Epizyme, Inc., priority 2010, dated 2013).
Read-outs that look alike come from different tables or passages of the source.

Target: DOT1L(1-416) (Homo sapiens, UniProt Q8TEK3)
Experiment: Determination of IC50: DOT1L(1-416) methyltransferase assay, 3H-SAM, oligonucleosome substrate, Flashplate
Assay type: biochemical
Conditions: read-out: DOT1L IC50
Experimental: Determination of IC50. Test compounds were serially diluted 3 fold in DMSO for 10 points and 1 μl was plated in a 384 well microtiter plate. […] 10 μl per well of substrate mix (same assay buffer with 200 nM S-[methyl-^3H]-adenosyl-L methionine, 600 nM of unlabeled […], and 20 nM oligonueleosome) was added to initiate the reaction. Reaction was incubated for 120 minutes at room temperature and quenched with 10 μl per well of 100 μM S-methyl-adenosyl-L methionine. For detection, substrate from 50 μl of reaction was immobilized on a 384 well Streptavidin coated Flashplate (Perkin Elmer) (also coated with 0.2% polyethyleneimine) and read on a Top Count scintillation counter (Perkin Elmer).

Sequence of DOT1L(1-416) (Q8TEK3 1-416): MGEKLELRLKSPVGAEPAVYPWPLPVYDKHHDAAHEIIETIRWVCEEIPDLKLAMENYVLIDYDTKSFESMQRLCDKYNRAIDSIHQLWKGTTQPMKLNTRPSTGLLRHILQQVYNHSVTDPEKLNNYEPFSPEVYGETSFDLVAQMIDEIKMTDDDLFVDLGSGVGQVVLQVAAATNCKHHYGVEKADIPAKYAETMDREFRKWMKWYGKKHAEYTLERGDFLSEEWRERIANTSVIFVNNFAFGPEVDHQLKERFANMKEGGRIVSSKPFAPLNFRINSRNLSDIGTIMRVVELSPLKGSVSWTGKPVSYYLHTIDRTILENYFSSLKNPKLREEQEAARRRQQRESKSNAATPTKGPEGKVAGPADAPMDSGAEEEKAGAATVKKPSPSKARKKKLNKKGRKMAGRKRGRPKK

| IC50 (class symbols) | Structure (SMILES) | IC50 |
| --- | --- | --- |
| < 100 nM | CN(C[C@H]1C[C@@H](n2ccc3c(N)ncnc32)[C@H](O)[C@@H]1O)[C@H]1C[C@H](CCc2nc3cc(Cl)c(Cl)cc3[nH]2)C1 [Compound 58, (1R,2S,3R,5R)-3-(4-amino-7H-pyrrolo[2,3-d]pyrimidin-7-yl)-5-((((1s,3R)-3-(2-(5,6-dichloro-1H-benzo[d]imidazol-2-yl)ethyl)cyclobutyl)(methyl)amino)methyl)cyclopentane-1,2-diol] |  |
| < 100 nM | CC(C)(C)c1ccc2[nH]c(CC[C@H]3C[C@@H](N(CC4CCC4)C[C@H]4C[C@@H](n5ccc6c(N)ncnc65)[C@H](O)[C@@H]4O)C3)nc2c1 [Compound 42, (1R,2S,3R,5R)-3-(4-amino-7H-pyrrolo[2,3-d]pyrimidin-7-yl)-5-((((1r,3S)-3-(2-(5-(tert-butyl)-1H-benzo[d]imidazol-2-yl)ethyl)cyclobutyl)(cyclobutylmethyl)amino)methyl)cyclopentane-1,2-diol] |  |
| < 100 nM | CC(C)N(C[C@H]1O[C@@H](n2cnc3c(N)ncnc32)[C@H](O)[C@@H]1O)C1CC(CCc2nc3cc(C4CC4)ccc3[nH]2)C1 (stereo partly drawn) [Compound 112, (2R,3R,4S,5R)-2-(6-amino-9H-purin-9-yl)-5-(((3-(2-(5-cyclopropyl-1H-benzo[d]imidazol-2-yl)ethyl)cyclobutyl) (isopropyl)amino)methyl)tetrahydrofuran-3,4-diol] |  |
| < 100 nM | CC(C)N(C[C@H]1O[C@@H](n2cnc3c(N)ncnc32)[C@H](O)[C@@H]1O)[C@H]1C[C@H](CCc2nc3cc(C4CCC4)ccc3[nH]2)C1 [Compound 114, (2R,3R,4S,5R)-2-(6-amino-9H-purin-9-yl)-5-((((1s,3R)-3-(2-(5-cyclobutyl-1H-benzo[d]imidazol-2-yl)ethyl)cyclobutyl) (isopropyl)amino)methyl)tetrahydrofuran-3,4-diol] |  |
| 1000 to 10000 nM | CC(C)N(C[C@@H]1C[C@@H](O)[C@H](n2ccc3c(N)ncnc32)C1)[C@H]1C[C@H](CCc2nc3cc(C(C)(C)C)ccc3[nH]2)C1 [Compound 104, (1R,2R,4S)-2-(4-amino-7H-pyrrolo[2,3-d]pyrimidin-7-yl)-4-((((1s,3S)-3-(2-(5-(tert-butyl)-1H-benzo[d]imidazol-2-yl)ethyl)cyclobutyl) (isopropyl)amino)methyl)cyclopentanol] |  |
| < 100 nM | CCN(C[C@H]1O[C@@H](n2cnc3c(N)ncnc32)[C@H](O)[C@@H]1O)[C@H]1C[C@@H](CCc2nc3cc(C(C)(C)C)ccc3[nH]2)C1 [Compound 73, (2R,3R,4S,5R)-2-(6-amino-9H-purin-9-yl)-5-((((1r,35)-3-(2-(5-(tert-butyl)-1H-benzo[d]imidazol-2-yl)ethyl)cyclobutyl)(ethyl)amino)methyl)tetrahydrofuran-3,4-diol] |  |
| < 100 nM | CCN(C[C@H]1O[C@@H](n2cnc3c(N)ncnc32)[C@H](O)[C@@H]1O)[C@H]1C[C@H](CCc2nc3cc(C(C)(C)C)ccc3[nH]2)C1 [Compound 74, (2R,3R,4S,5R)-2-(6-amino-9H-purin-9-yl)-5-((((1s,3R)-3-(2-(5-(tert-butyl)-1H-benzo[d]imidazol-2-yl)ethyl)cyclobutyl)(ethyl)amino)methyl)tetrahydrofuran-3,4-diol] |  |
| < 100 nM | CC(C)N(C[C@H]1O[C@@H](n2cnc3c(N)ncnc32)[C@H](O)[C@@H]1O)C1CC(CCc2nc3cc(C4CCC4)ccc3[nH]2)C1 (stereo partly drawn) [Compound 111, (2R,3R,4S,5R)-2-(6-amino-9H-purin-9-yl)-5-(((3-(2-(5-cyclobutyl-1H-benzo[d]imidazol-2-yl)ethyl)cyclobutyl) (isopropyl)amino)methyl)tetrahydrofuran-3,4-diol] |  |
| < 100 nM | CC(C)N(C[C@H]1C[C@@H](n2ccc3c(N)ncnc32)[C@H](O)[C@@H]1O)C1CC(CCc2nc3cc(C(C)(C)C)ccc3[nH]2)C1 (stereo partly drawn) [Compound 19, (1R,2S,3R,5R)-3-(4-amino-7H-pyrrolo[2,3-d]pyrimidin-7-yl)-5-(((3-(2-(5-(tert-butyl)-1H-benzo[d]imidazol-2-yl)ethyl)cyclobutyl)(isopropyl)amino)methyl)cyclopentane-1,2-diol] |  |
| < 100 nM | CC(C)CN(C[C@H]1C[C@@H](n2ccc3c(N)ncnc32)[C@H](O)[C@@H]1O)[C@H]1C[C@H](CCc2nc3cc(C(C)(C)C)ccc3[nH]2)C1 [Compound 48, (1R,2S,3R,5R)-3-(4-amino-7H-pyrrolo[2,3-d]pyrimidin-7-yl)-5-((((1s,3R)-3-(2-(5-(tert-butyl)-1H-benzo[d]imidazol-2-yl)ethyl)cyclobutyl)(isobutyl)amino)methyl)cyclopentane-1,2-diol] |  |
| < 100 nM | CN(C[C@H]1C[C@@H](n2ccc3c(N)ncnc32)[C@H](O)[C@@H]1O)C1CC(CCc2nc3cc(C(F)(F)F)c(Cl)cc3[nH]2)C1 (stereo partly drawn) [Compound 7, (1R,2S,3R,5R)-3-(4-amino-7H-pyrrolo[2,3-d]pyrimidin-7-yl)-5-(((3-(2-(6-chloro-5-(trifluoromethyl)-1H-benzo[d]imidazol-2-yl)ethyl)cyclobutyl)(methyl)amino)methyl)cyclopentane-1,2-diol] |  |
| 100 to 1000 nM | CN(C[C@H]1C[C@@H](n2ccc3c(N)ncnc32)[C@H](O)[C@@H]1O)C1CC(CCc2nc3cc(C4COC4)ccc3[nH]2)C1 (stereo partly drawn) [Compound 62, (1R,2S,3R,5R)-3-(4-amino-7H-pyrrolo[2,3-d]pyrimidin-7-yl)-5-((methyl(3-(2-(5-(oxetan-3-yl)-1H-benzo[d]imidazol-2-yl)ethyl)cyclobutyl)amino)methyl)cyclopentane-1,2-diol] |  |
| < 100 nM | CC(C)N(C[C@H]1O[C@@H](n2cnc3c(N)ncnc32)[C@H](O)[C@@H]1O)C1CC(CCc2nc3cc(C4(C)CCC4)ccc3[nH]2)C1 (stereo partly drawn) [Compound 27, (2R,3R,4S,5R)-2-(6-amino-9H-purin-9-yl)-5-((isopropyl(3-(2-(5-(1-methylcyclobutyl)-1H-benzo[d]imidazol-2-yl)ethyl)cyclobutyl)amino)methyl)tetrahydrofuran-3,4-diol] |  |
| < 100 nM | CC(C)N(C[C@H]1C[C@@H](n2ccc3c(N)ncnc32)[C@H](O)[C@@H]1O)C1CC(CCc2nc3cc(OC(F)(F)F)ccc3[nH]2)C1 (stereo partly drawn) [Compound 56, (1R,2S,3R,5R)-3-(4-amino-7H-pyrrolo[2,3-d]pyrimidin-7-yl)-5-((isopropyl(3-(2-(5-(trifluoromethoxy)-1H-benzo[d]imidazol-2-yl)ethyl)cyclobutyl)amino)methyl)cyclopentane-1,2-diol] |  |
| < 100 nM | CC(C)(C)c1ccc2[nH]c(CC[C@H]3C[C@@H](NC[C@H]4O[C@@H](n5cnc6c(N)ncnc65)[C@H](O)[C@@H]4O)C3)nc2c1 [Compound 98, (2R,3R,4S,5R)-2-(6-amino-9H-purin-9-yl)-5-((((1r,3S)-3-(2-(5-(tert-butyl)-1H-benzo[d]imidazol-2-yl)ethyl)cyclobutyl)amino)methyl) tetrahydrofuran-3,4-diol] |  |

| Structure (SMILES) | IC50 (class symbols) | IC50 |
| --- | --- | --- |
| CN(C[C@H]1O[C@@H](n2ccc3c(N)ncnc32)[C@H](O)[C@@H]1O)[C@H]1C[C@@H](CCc2nc3cc(C(C)(C)C)ccc3[nH]2)C1 [Compound 86, (2R,3R,4S,5R)-2-(4-amino-7H-pyrrolo[2,3-d]pyrimidin-7-yl)-5-((((1r,3S)-3-(2-(5-(tert-butyl)-1H-benzo[d]imidazol-2-yl)ethyl)cyclobutyl) (methyl)amino)methyl) tetrahydrofuran-3,4-diol] | < 100 nM | 0.62 nM |
